# Patent publication US20080051464A1, “Protein phosphatase inhibitors” (The Cleveland Clinic Foundation, priority 2006, published 2008)
# Legend:
# recombinant SHP-1 = target: T1, recombinant SHP-1 (Homo sapiens, UniProt P29350); assay: rapid in vitro SHP-1 PTPase assay (DIFMUP substrate); type: biochemical; details: 1 μg/well; FIG. 12A
# T1 construct: Recombinant protein of SHP-1 PTPase catalytic domain was described
# T1 sequence (P29350 244-515 limits assumed): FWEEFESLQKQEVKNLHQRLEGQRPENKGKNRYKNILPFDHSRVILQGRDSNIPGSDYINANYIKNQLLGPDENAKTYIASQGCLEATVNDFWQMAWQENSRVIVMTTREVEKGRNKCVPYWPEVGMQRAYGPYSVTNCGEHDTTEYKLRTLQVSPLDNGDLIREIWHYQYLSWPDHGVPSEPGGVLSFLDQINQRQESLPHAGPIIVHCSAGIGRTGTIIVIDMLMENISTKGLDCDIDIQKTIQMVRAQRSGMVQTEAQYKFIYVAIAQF
# Protocol: Recombinant protein of SHP-1 PTPase catalytic domain was described and stored in Tris buffer (25 mM Tris, pH7.5, 1 mM EDTA, 2 μM 2-ME, 25% glycerol) at −80° C. Fluorescence substrate DIFMUP (6,8-difluoro-4 methylumbelliferyl phosphate) was purchased (Molecular Probes). SSG was reported previously (21-23) and stored at 4° C. in darkness prior to use. Human and mouse IFNγ ELISPOT Kit (R & D System), CD4^+ Cell Intracellular IFNγ Detection Kit (BD Bioscience) and CD8^+ Cell Intracellular IFNγ Detection Kit (BD Bioscience) were purchased from commercial sources. Human Jurkat T cell line (26) and murine B16 melanoma cell line (ATCC) were maintained in […] culture medium supplemented with 10% fetal calf serum (FCS). Antibodies against pLck-pY394 (Cell Signaling), pLck-pY505 (Cell Signaling), pZap70 (pY319, BD Biosciences), pSlp76 (pY128, BD Biosciences) and pLat (pY226, BD Biosciences) were purchased from commercial sources.
# (§1) A rapid SHP-1 PTPase assay was developed for screening the compounds in a commercial library of 34,000 drug-like small chemicals (Chembridge, Mass.). Briefly, compounds of the library (1 μg/well in 0.21 DMSO) were placed in 96-well plates (Falcon, 353072) and mixed with recombinant SHP-1 protein (0.1 μg/well) in 90 μl of HEPES buffer (50 mM HEPS, pH 7.5, 150 mM NaCl, 1 mM EDTA, 0.2 mM DTT and 0.1 mg/ml BSA). The plates were incubated at room temperature for 10 minutes prior to the addition of fluorescence substrate DIFMUP (40 μM stock in HEPES buffer, 10 μl/well) to initiate PTPase reaction. Upon completion of PTPase reaction at room temperature for 1 hr in darkness, fluorescence signal of individual wells were recorded using a Vector^2 Multilabel Counter (Vector, CA). They were compared to that of control SHP-1 PTPase reaction (˜10,000 units of fluorescence signal) in the absence of any compound (100%) for calculating relative SHP-1 inhibition induced by the compounds after subtracting the background signal (˜500 units of fluorescence signal) of the substrate.
# as §1, with “To evaluate their” for “A rapid”, “inhibitory activity,” for “PTPase assay was developed for screening”, “analogs” for “compounds in a commercial library of 34,000 drug-like small chemicals (Chembridge, Mass.). Briefly, compounds of the library”, “0.2 μl” for “0.21”, “aliquot individually to” for “placed in”, “(500” for “(˜500”
# Jurkat cells = assay: Jurkat cell apoptosis (Annexin V / 7-AAD, FACS); type: cell-based, human; details: 16 hrs (FIG. 23)
# Protocol: FIG. 23 illustrates jurkat cells were treated with L6 and analogs in culture for 16 hrs. Cells were then stained for apoptotic marker Annexin V and cell death marker 7-AAD prior to FACS analysis.
# MKPs = assay: induction of MKPs substrates in Jurkat cells (Western blotting); type: cell-based, human
# Protocol: FIG. 22 illustrates selective induction of MKPs substrates by L6 and analogs in Jurkat human leukemic cells. Jurkat cells were treated with the compounds for 30 min in culture prior to quantification of MKPs substrates by SDS-PAGE/Western blotting.
# [1] = tested on: HT-29 human colon cancer cells; assay: cytotoxicity of 5FU against HT-29 cells with L6 or analogs (MTT assay); type: cell-based; details: 5FU 2 μm, 3 days, then 4 days culture (FIG. 24)
# Protocol: FIG. 24 illustrates HT-29 cells were treated with L6 or the analogs in the absence or presence of 5FU (2 μm) for 3 days. After washing, the cells were cultured for 4 days prior to quantification of viable cells by MTT assays.
# [2] = tested on: SHP-1 substrate pLck-pY394 in Jurkat T cells; assay: induction of pLck-pY394 in Jurkat cells (SDS-PAGE/Western blotting); type: cell-based, human
# Protocol: (§2) Jurkat cells in culture medium (3×10^6 cells/ml, 1 ml/tube) were treated with agents for designated times at room temperature. After brief centrifuging in a microfuge (4,000 rpm, 2 min), the cell pellet was lysed on ice for 30 min in 100 μl of cold lysis buffer (1% NP40, 50 mM Tris, pH 7.4, 150 mM NaCl, 20 mM NaF, 0.2 mM Na3VO4 and 1 mM Na3MO4) containing a cocktail of proteinase inhibitors (Sigma, 1 tablet/10 ml). The lysates were cleared by centrifuging (14,000 rpm, 10 min) in a microfuge at 4° C. to remove insoluble parts, mixed with equal volume of 2×SDS-PAGE sample buffer, boiled for 5 min and analyzed (˜3×10^5 cells/well) by SDS-PAGE/Western blotting. Relative intensities of phosphotyrosine bands were quantified through densitometry analysis.
# as §2, with “blotting as described previously (23, 24).” for “blotting.”
# as §2, with “blotting as described previously (17, 18).” for “blotting.”
# SHP-1 and SHP-2 = assay: SSG inhibition of recombinant and intracellular SHPs (applicant's earlier studies); details: clinically achievable levels
# [3] = tested on: IFNγ+ cells in mouse splenocytes; assay: induction of IFNγ+ cells in mouse splenocytes in vitro (ELISPOT); type: cell-based
# Protocol: The splenocytes were cultured in RPMI 1640 medium supplemented with 10% FCS in the absence or presence of designated agents for 16 hrs in flat-bottom 96-well plates coated with a monoclonal antibody specific for mouse IFNγ (mouse IFNγ ELISPOT Kit, R & D System). The plates were then processed for in situ detection of IFNγ+ cells by ELISA following the manufacturer's procedure. Scanning and counting of IFNγ+ cells in the plates were accomplished using an automatic ELISPOT reader with Immunospot2 software (Cellular Technology Ltd). Mouse splenocytes were also untreated or treated with agents for 16 hrs in culture dishes and then stained with appropriate isotype control antibodies or FICT-labeled anti-CD3 monoclonal antibody (BD) plus PE-labeled monoclonal antibody (BD) for intracellular IFNγ following established procedures. The stained samples were washed 3 times, re-suspended in 200 μl of 1% para-formaldehyde solution and analyzed (20,000 cells/sample) using a BD FACS Caliburs cytometer and WinList software.
# The splenocytes were cultured in RPMI 1640 medium supplemented with 10% FCS in the absence or presence of designated agents for 16 hrs in flat-bottom 96-well plates coated with a monoclonal antibody specific for mouse IFNγ (mouse IFNγ ELISPOT Kit, R & D System). The plates were then processed for in situ detection of IFNγ+ cells by ELISA following the manufacturer's procedure. Scanning and counting of IFNγ+ cells in the plates were accomplished using an automatic ELISPOT reader with Immunospot2 software (Cellular Technology Ltd).
# [4] = tested on: CD3+ and CD3− IFNγ+ splenocytes; assay: spleno-IFNγ+ T cells in B16 tumor mice (flow cytometry); type: in vivo, mouse; details: 1 mg/kg oral, day 22
# Protocol: Splenocytes from mice untreated or treated with L5a2 were stained with appropriate isotype control antibodies or FICT-labeled anti-CD3 monoclonal antibody (BD) plus PE-labeled monoclonal antibody (BD) for intracellular IFNγ following established procedures. The stained samples were washed 3 times, re-suspended in 200 μl of 1% para-formaldehyde solution and analyzed (20,000 cells/sample) using a BD FACS Caliburs cytometer and FlowJoe software.
# To gain further insights into the mechanism of action in L5a2 in vivo, spleens were harvested from the B16 tumor mice in the control and the L5a2-treated groups (FIG. 13A) on day 22 to assess whether L5a2 induced IFNγ+ cells in the tumor-bearing mice. It was also determined whether the induced-IFNγ+ cells were of CD3+ T lymphocytes, which were activated TH1 critical for anti-tumor immunity. Splenocytes were prepared and co-stained for intracellular IFNγ and the T cell surface marker CD3 for quantification of IFNγ+T cells by flow cytometry.
# B16 melanoma cells = assay: B16 melanoma cell growth in culture (MTT assay); type: cell-based, mouse; details: 6 days (FIG. 13C)
# Text: L5, L6 and L6 analogs (Chembridge), mouse IFNγ ELISPOT Kit (R & D System) and antibody against pLck-pY394 or pERK1/2 (Cell Signaling) were purchased from commercial sources. Human Jurkat T cell line and murine B16 melanoma cell line (ATCC) and other cancer cell lines were maintained in […] culture medium supplemented with 10% fetal calf serum (FCS). The effects of chemical compounds on cancer cell growth in culture were quantified by MTT assays following our established procedures.
# B16 melanoma tumors = assay: B16 melanoma tumor growth in C57BL/6J mice; type: in vivo
# Protocol: Tumor volume (n=5) was measured during the study period and calculated using the formula for a prolate spheroid. Student's t test was used for assessing the significance of tumor volume differences among differential treatment groups. Mouse viability (daily) and body weights (weekly) were also recorded during the study period. Major internal organs of the mice were inspected visually upon their termination at the end of the experiment.
# To assess anti-tumor activity, C57BL/6J mice (˜8-week old, female, Taconic Farms, Germantown, N.Y.) were inoculated (s.c.) at the flanks with B16 melanoma cells (4×10^4 cells/site). […] Tumor volume (n=5) was measured during the study period and calculated using the formula for a prolate spheroid. Student's t test was used for assessing the significance of tumor volume differences among differential treatment groups. Mouse viability (daily) and body weights (weekly) were also recorded during the study period. Major internal organs of the mice were inspected visually upon their termination at the end of the experiment.
compound,measurement,setting,value
O=C1C=C(c2ccccc2)C(=O)c2ccccc21 [L5a3],inhibition of phosphatase activity of recombinant SHP-1,recombinant SHP-1,~80%
O=c1cc(Cl)sn1Cc1ccccc1 [L6a1],Jurkat cell apoptosis,Jurkat cells,failed to induce apoptosis
same,MKP predominantly targeted (as indicated by effects on the substrates),MKPs,inhibited HVH3
same,"differential effects on MKP substrates (pERK1/2, p38, pJNK)","MKPs; 30 min (FIG. 22), L6 at 1-100 ng/ml",lack of activity to induce pJNK or p-p39
same,augmentation of 5FU cytotoxicity against HT-29 cells,[1],not
"O.O.O.O.O.O.O.O.O.O=C([O-])[C@@H]1[O][Sb]2([O-])([O][Sb]34([OH])[O][C@H]([C@H](O)CO)[C@H]([O]3)[C@H](C(=O)[O-])[O]4)[O][C@H]([C@H](O)CO)[C@@H]1[O]2.[Na+].[Na+].[Na+] [SSG, Sodium Stibogluconate, reference compound]",pLck-pY394 induction,[2]; lower (1 μg/ml) or higher (100 μg/ml) doses,failed
same,level at which recombinant and intracellular SHP-1 and SHP-2 are inhibited,SHP-1 and SHP-2,10 µg/mL
O=C1C=CC(=O)C(c2cccc(Cl)c2)=C1 [L5a2],immune cell activation (increase),[3]; FIG. 11,~20 fold
same,increase of CD3+ IFNγ+ cells,[4],~4.5 fold
same,increase of CD3− IFNγ+ cells,[4],1.3 fold
same,inhibition of B16 melanoma cells in culture,B16 melanoma cells,failed to inhibit B16 melanoma cells in culture
same,growth inhibition of B16 tumors vs control,"B16 melanoma tumors; 1 mg/kg body weight daily, Monday-Friday/week, oral gavage",~75%
same,survival of treated mice,"B16 melanoma tumors; 1 mg/kg daily, oral gavage",survived till the end of the study
same,inhibition of phosphatase activity of recombinant SHP-1,recombinant SHP-1,completely or almost completely inhibited
O=C1C=C(c2ccccc2Cl)CC(=O)C1 [L5a10],effect on pLck-pY394 levels,"[2]; Jurkat cells, 10 min (FIG. 10)",failed to induce pLck-pY394
same,induction of spleno-IFNγ+ cells (average),[3]; doses from 1-30 μg/ml,~2 folds
same,inhibition of B16 melanoma tumors in mice,B16 melanoma tumors; preliminary experiment,failed to inhibit B16 melanoma tumors
same,inhibition of phosphatase activity of recombinant SHP-1,recombinant SHP-1,~5%
O=C1C=CC(=O)C(c2ccc(Cl)cc2Cl)=C1 [L5a1],effectiveness in inducing pLck-pY394 relative to L5,"[2]; Jurkat cells, 10 min (FIG. 10)",~50%
same,inhibition of phosphatase activity of recombinant SHP-1,recombinant SHP-1,completely or almost completely inhibited
COc1ccc(C2=CC(=O)C=CC2=O)cc1 [L5a5],inhibition of phosphatase activity of recombinant SHP-1,recombinant SHP-1,completely or almost completely inhibited
CCOc1ccc(C2=CC(=O)C=CC2=O)cc1 [L5a4],inhibition of phosphatase activity of recombinant SHP-1,recombinant SHP-1,completely or almost completely inhibited
